Measured values: patent US20090163698A1, “Method for Preparing Antibody Conjugates” (priority 2007, published 2009)

What was measured:
[1] = tested on: A375.S2 cells; assay: Binding and internalization study at 37° C., confocal microscopy; format: cell-based, human; conditions: 37° C. for 10 min, washed, incubated 1 hour at 37° C.
Protocol: A375.S2 cells were harvested by scraping and then resuspended to obtain individualized cells and rejuvenated for 1 hour, at 37° C. About 1 million cells of each tumor type were counted and distributed into individual centrifugation tubes. The tubes were spun to obtain a cell pellet.
For binding and internalization, the cells were treated with the targeted liposome formulation at 37° C. for 10 min with mild shaking (140 rpm). Cells were treated with the liposome formulations containing either a doxorubicin payload or a fluorescent marker (Dextran Alexa Fluor 488). Treatment was terminated by adding 1 mL of washing media (serum free), vortexing briefly, and centrifuging to recover a cell pellet The cells in the pellet were resuspend in washing media, vigorously shaken for 10 minutes at 37° C. and then centrifuged again (440 rpm). The cell pellet was left in 100 μL of media, an aliquot of 8 μL was taken and placed on a glass slide for observation under a confocal microscope.
Binding and internalization of the targeted liposomes to A375.S2 cells was evaluated after various incubation times of the cells and the liposome formulation.

[2] = tested on: murine αVβ3/5 integrin; conditions: cited from earlier work
Chain of murine αVβ3/5 integrin (P43406 31-885 limits assumed): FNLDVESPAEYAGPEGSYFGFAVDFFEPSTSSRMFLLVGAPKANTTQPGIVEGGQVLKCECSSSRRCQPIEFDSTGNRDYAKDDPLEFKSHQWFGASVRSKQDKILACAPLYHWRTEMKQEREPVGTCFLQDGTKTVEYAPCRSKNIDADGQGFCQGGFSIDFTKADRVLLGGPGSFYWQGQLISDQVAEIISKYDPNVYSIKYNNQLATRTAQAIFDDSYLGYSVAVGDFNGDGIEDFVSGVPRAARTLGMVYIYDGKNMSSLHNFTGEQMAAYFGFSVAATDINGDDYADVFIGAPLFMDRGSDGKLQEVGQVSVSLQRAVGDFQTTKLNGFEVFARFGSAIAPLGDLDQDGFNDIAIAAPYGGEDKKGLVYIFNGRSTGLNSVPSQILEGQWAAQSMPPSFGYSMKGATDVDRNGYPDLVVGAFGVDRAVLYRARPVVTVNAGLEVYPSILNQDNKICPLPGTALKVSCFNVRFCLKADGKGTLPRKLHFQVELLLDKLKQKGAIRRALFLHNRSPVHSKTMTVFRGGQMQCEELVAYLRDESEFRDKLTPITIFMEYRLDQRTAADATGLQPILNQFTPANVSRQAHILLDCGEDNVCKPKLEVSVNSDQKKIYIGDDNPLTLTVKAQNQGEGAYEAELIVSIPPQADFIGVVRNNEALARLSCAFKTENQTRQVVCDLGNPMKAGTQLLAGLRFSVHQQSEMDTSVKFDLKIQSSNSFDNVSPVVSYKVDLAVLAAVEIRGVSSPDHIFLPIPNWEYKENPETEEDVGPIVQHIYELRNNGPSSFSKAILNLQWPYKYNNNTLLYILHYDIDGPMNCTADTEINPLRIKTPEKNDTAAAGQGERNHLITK
Chain of murine αVβ3/5 integrin (P43406 887-1044 limits assumed): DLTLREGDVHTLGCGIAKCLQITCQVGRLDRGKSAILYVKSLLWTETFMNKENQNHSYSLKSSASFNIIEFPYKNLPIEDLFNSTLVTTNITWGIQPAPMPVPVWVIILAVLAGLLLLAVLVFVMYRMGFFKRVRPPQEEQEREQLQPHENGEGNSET

Row | Compound | Binding and internalization (confocal microscopy) [1] | Binding to murine αVβ3/5 integrin [2]
1 | COc1cccc2c1C(=O)c1c(O)c3c(c(O)c1C2=O)C[C@@](O)(C(=O)CO)C[C@@H]3O[C@H]1C[C@H](N)[C@H](O)[C@H](C)O1 [free dox, doxorubicin] | drug internalization is evident | 
2 | CNTO95: full-length human anti-alpha-V antibody of the IgG1k type, SEQ ID NO: 1 and SEQ ID NO: 2 |  | does not bind
